In US20170253607A1, “LONG-ACTING HIV PROTEASE INHIBITOR” (Shionogi & Co., Ltd., priority 2014, published 2017):

Target: HIV-1 PR (Human immunodeficiency virus type 1 group M subtype B, UniProt P04585)
Assay: HIV-protease inhibitory activity assay (FRET peptide substrate)
Assay type: biochemical
Conditions: Test Example 1
In short: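 Inhibition of HIV-1 protease was measured as loss of fluorescence dequenching of a HiLyte Fluor 488/QXL 520 peptide at 2 μmol/L, pH 4.8, room temperature, 60 minute reaction. IC50 was derived by nonlinear four-parameter fitting.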

Structure (SMILES) | IC50 [nM]
COc1ccc(S(=O)(=O)N(CC(C)C)CC(O)C(Cc2ccc(NCc3cnc(-c4sc5c(c4C(=O)O)CC(C)(C)CC5)c(C)c3)cc2)NC(=O)OC2COC3(C)OCCC23)cc1 (stereo not drawn) [Compound I-559] | 1.87
COc1ccc(S(=O)(=O)N(CC(C)C)CC(O)C(Cc2ccc(N(C)Cc3ccc(C)cc3C(=O)Nc3sc4c(c3C(=O)O)CC(C)(C)CC4)cc2)NC(=O)OC2COC3(C)OCCC23)cc1 (stereo not drawn) [Compound I-745] | 3.39
COc1ccc(S(=O)(=O)N(CC(C)C)CC(O)C(Cc2ccc(OCc3ccnc(C(=O)O)c3)cc2)NC(=O)OC2COC3(C)OCCC23)cc1 (stereo not drawn) [Compound I-306] | 1.89
CC=Cc1ccc(-c2sc3c(c2C(=O)O)CC(C)(C)CC3)c(CNc2ccc(CC(NC(=O)OC3COC4(C)OCCC34)C(O)CN(CC(C)C)S(=O)(=O)c3ccc(OC)cc3)cc2)c1 (stereo not drawn) [Compound I-723] | 1.65
COc1ccc(S(=O)(=O)N(CC(C)C)CC(O)C(Cc2ccc(NCc3cc(Cl)ccc3-c3sc4c(c3C(=O)O)CC(C)(C)CC4)cc2)NC(=O)OC2COC3(C)OCCC23)cc1 (stereo not drawn) [Compound I-547] | 2.28
COc1ccc(S(=O)(=O)N(CC(C)C)CC(O)C(Cc2ccc(N3C(=O)c4ccc(-c5sc6c(c5C(=O)O)CC(C)(C)CC6)cc4C3=O)cc2)NC(=O)OC2COC3(C)OCCC23)cc1 (stereo not drawn) [Compound I-621] | 1.84
COc1ccc(S(=O)(=O)N(CC(C)C)CC(O)C(Cc2ccc(NC(C)c3ccccc3-c3sc4c(c3C(=O)O)CC(C)(C)CC4)cc2)NC(=O)OC2COC3(C)OCCC23)cc1 (stereo not drawn) [Compound I-383] | 6.47
CC(C)CN(CC(O)C(Cc1ccc(OC(C(=O)O)c2ccc(-c3ccc(F)cc3F)cc2)cc1)NC(=O)OC1COC2(C)OCCC12)S(=O)(=O)c1ccc2ncsc2c1 (stereo not drawn) [Compound I-154] | 1.87
COc1ccc(S(=O)(=O)N(CC(C)C)CC(O)C(Cc2ccc(OCc3ncsc3-c3sc4c(c3C(=O)O)CC(C)(C)CC4)cc2)NC(=O)OC2COC3(C)OCCC23)cc1 (stereo not drawn) [Compound I-89] | 1.11
CC(C)CN(C[C@@H](O)[C@H](Cc1ccc(OCc2ccc(-c3ccc(F)cc3F)cc2C(=O)O)cc1)NC(=O)O[C@H]1CO[C@@]2(C)OCC[C@@H]12)S(=O)(=O)c1ccc2ncsc2c1 [Compound I-18] | 1.63
COc1ccc(S(=O)(=O)N(CC(C)C)CC(O)C(Cc2ccc(OCc3cccnc3-c3sc4c(c3C(=O)O)CC(C)(C)CC4)cc2)NC(=O)OC2COC3(C)OCCC23)cc1 (stereo not drawn) [Compound I-90] | 1.32
COc1ccc(S(=O)(=O)N(CC(C)C)CC(O)C(Cc2ccc(NCc3ccccc3-c3c(C(=O)O)cnc4ccc(OC)cc34)cc2)NC(=O)OC2COC3(C)OCCC23)cc1 (stereo not drawn) [Compound I-500] | 1.78
COc1ccc(S(=O)(=O)N(CC(C)C)CC(O)C(Cc2ccc(OCc3ccccc3-c3sc(N4CCC(C)(C)CC4)nc3C(=O)O)cc2)NC(=O)OC2COC3OCCC23)cc1 (stereo not drawn) [Compound I-844] | 1.01
COc1ccc(S(=O)(=O)N(CC(C)C)CC(O)C(Cc2ccc(OCc3ccc(-c4sc5c(c4C(=O)O)CC(C)(C)CC5)c(C)c3)cc2)NC(=O)OC2COC3(C)OCCC23)cc1 (stereo not drawn) [Compound I-91] | 1.35
COc1ccc(S(=O)(=O)N(CC(C)C)CC(O)C(Cc2ccc(OCc3ccccc3-c3sc(N4CCCC(C)(C)C4)nc3C(=O)O)cc2)NC(=O)OC2COC3OCCC23)cc1 (stereo not drawn) [Compound I-846] | 1.2
COc1ccc(S(=O)(=O)N(CC(C)C)CC(O)C(Cc2ccc(N(C)Cc3cc(-c4ccc5ccccc5c4)ccc3-c3sc4c(c3C(=O)O)CC(C)(C)CC4)cc2)NC(=O)OC2COC3(C)OCCC23)cc1 (stereo not drawn) [Compound I-692] | 26.1
COc1ccc(S(=O)(=O)N(CC(C)C)CC(O)C(Cc2ccc(N(C)C3CCc4c(-c5sc6c(c5C(=O)O)CC(C)(C)CC6)cccc43)cc2)NC(=O)OC2COC3(C)OCCC23)cc1 (stereo not drawn) [Compound I-709] | 7.2
COc1ccc(S(=O)(=O)N(CC(C)C)CC(O)C(Cc2ccc(OCc3ccccc3-c3sc4c(c3C(=O)NS(=O)(=O)C3CC3)CC(C)(C)CC4)cc2)NC(=O)OC2COC3(C)OCCC23)cc1 (stereo not drawn) [Compound I-58] | 1.11
COc1ccc(S(=O)(=O)N(CC(C)C)CC(O)C(Cc2ccc(N(C)Cc3cccc(C)c3C(=O)Nc3sc4c(c3C(=O)O)CC(C)(C)CC4)cc2)NC(=O)OC2COC3(C)OCCC23)cc1 (stereo not drawn) [Compound I-747] | 4.35
COc1ccc(S(=O)(=O)N(CC(C)C)CC(O)C(Cc2ccc(OCC3CCN(c4ccccc4-c4sc5c(c4C(=O)O)CC(C)(C)CC5)C3)cc2)NC(=O)OC2COC3(C)OCCC23)cc1 (stereo not drawn) [Compound I-204] | 2.04
COc1ccc(S(=O)(=O)N(CC(C)C)CC(O)C(Cc2ccc(OC(C)(C)C(=O)NS(=O)(=O)c3cccc(-c4ccc(F)cc4F)c3)cc2)NC(=O)OC2COC3(C)OCCC23)cc1 (stereo not drawn) [Compound I-57] | 1.07
COc1ccc(S(=O)(=O)N(CC(C)C)CC(O)C(Cc2ccc(NCc3ccccc3-c3sc4c(c3C(=O)O)CC(C)(C)CC4)cc2)NC(=O)OC2COC3OCC(OC)C23)cc1 (stereo not drawn) [Compound I-853] | 1.98
CC(C)CN(C[C@@H](O)[C@H](Cc1ccccc1)NC(=O)O[C@H]1CO[C@@]2(C)OCC[C@@H]12)S(=O)(=O)c1ccc2nc(NCCCCOc3ccc(-c4sc5c(c4C(=O)O)CC(C)(C)CC5)cc3)sc2c1 [Compound I-27] | 3.7

Structure (SMILES) | IC50 [nM]
COc1ccc(S(=O)(=O)N(CC(C)C)C[C@@H](O)[C@H](Cc2ccc(OCc3ccc(-c4ccc(F)cc4F)cc3-c3nnn[nH]3)cc2)NC(=O)O[C@H]2CO[C@@]3(C)OCC[C@@H]23)cc1 [Compound I-22] | 0.99
COc1ccc(S(=O)(=O)N(CC(C)C)CC(O)C(Cc2ccc(N(C)Cc3ncccc3-c3ccccc3-c3sc4c(c3C(=O)O)CC(C)(C)CC4)cc2)NC(=O)OC2COC3(C)OCCC23)cc1 (stereo not drawn) [Compound I-477] | 2
COc1ccc(S(=O)(=O)N(CC(C)C)CC(O)C(Cc2ccc(NCc3ccccc3NC(=O)Nc3sc4c(c3C(=O)O)CC(C)(C)CC4)cc2)NC(=O)OC2COC3OCCC23)cc1 (stereo not drawn) [Compound I-884] | 2.03
COc1ccc(S(=O)(=O)N(CC(C)C)CC(O)C(Cc2ccc(N3Cc4nc5ccccc5cc4C3=O)cc2)NC(=O)OC2COC3(C)OCCC23)cc1 (stereo not drawn) [Compound I-771] | 2
COc1ccc(S(=O)(=O)N(CC(C)C)CC(O)C(Cc2ccc(NCc3ccncc3-c3sc4c(c3C(=O)O)CC(C)(C)CC4)cc2)NC(=O)OC2COC3(C)OCCC23)cc1 (stereo not drawn) [Compound I-273] | 2.25
COc1ccc(S(=O)(=O)N(CC(C)C)CC(O)C(Cc2ccc(N3CCc4ccc(-c5sc6c(c5C(=O)O)CC(C)(C)CC6)cc4C3)cc2)NC(=O)OC2COC3(C)OCCC23)cc1 (stereo not drawn) [Compound I-215] | 2.01
COc1ccc(S(=O)(=O)N(CC(C)C)CC(O)C(Cc2ccc(OC3CCN(c4ncccc4-c4sc5c(c4C(=O)O)CC(C)(C)CC5)C3)cc2)NC(=O)OC2COC3(C)OCCC23)cc1 (stereo not drawn) [Compound I-355] | 2.35
COc1ccc(S(=O)(=O)N(CC(C)C)CC(O)C(Cc2ccc(N(Cc3ccoc3)Cc3ccccc3-c3sc4c(c3C(=O)O)CC(C)(C)CC4)cc2)NC(=O)OC2COC3(C)OCCC23)cc1 (stereo not drawn) [Compound I-424] | 5.41
COc1ccc(S(=O)(=O)N(CC(C)C)CC(O)C(Cc2ccc(NCc3cc(-c4sc5c(c4C(=O)O)CC(C)(C)CC5)ccc3OC(F)(F)F)cc2)NC(=O)OC2COC3(C)OCCC23)cc1 (stereo not drawn) [Compound I-294] | 3.92
COc1ccc(S(=O)(=O)N(CC(C)C)C[C@@H](O)[C@H](Cc2ccc(NCC(=O)Nc3sc4c(c3C(=O)O)CC(C)(C)CC4)cc2)NC(=O)OC2CO[C@@]3(C)OCC[C@@H]23)cc1 (stereo partly drawn) [Compound I-593] | 1.71
COc1ccc(S(=O)(=O)N(CC(C)C)CC(O)C(Cc2ccc(OCc3ccccc3-c3ccc(-n4nc5c(c4C(=O)O)CC(C)(C)CC5)cc3)cc2)NC(=O)OC2COC3(C)OCCC23)cc1 (stereo not drawn) [Compound I-301] | 3.14
COc1ccc(S(=O)(=O)N(CC(C)C)CC(O)C(Cc2ccc(N3CCN(c4ccc(-c5sc6c(c5C(=O)O)CC(C)(C)CC6)cc4)CC3)cc2)NC(=O)OC2COC3(C)OCCC23)cc1 (stereo not drawn) [Compound I-209] | 3.07
COc1ccc(S(=O)(=O)N(CC(C)C)CC(O)C(Cc2ccc(NCc3ccccc3-c3c(C(=O)O)[nH]c4cc(OC)ccc34)cc2)NC(=O)OC2COC3(C)OCCC23)cc1 (stereo not drawn) [Compound I-634] | 2.26
COc1ccc(S(=O)(=O)N(CC(C)C)CC(O)C(Cc2ccc(N(C)CC3=C(c4sc5c(c4C(=O)O)CC(C)(C)CC5)CCC(F)(F)C3)cc2)NC(=O)OC2COC3OCCC23)cc1 (stereo not drawn) [Compound I-881] | 5.89
COc1ccc(S(=O)(=O)N(CC(C)C)CC(O)C(Cc2ccc(OCc3ncccc3-c3ccccc3-c3sc4c(c3C(=O)O)CC(C)(C)CC4)cc2)NC(=O)OC2COC3(C)OCCC23)cc1 (stereo not drawn) [Compound I-110] | 1.67
COc1ccc(S(=O)(=O)N(CC(C)C)CC(O)C(Cc2ccc(NCc3nc(N(C4CCCCC4)C4CCCCC4)sc3-c3sc4c(c3C(=O)O)CC(C)(C)CC4)cc2)NC(=O)OC2COC3(C)OCCC23)cc1 (stereo not drawn) [Compound I-760] | 3.38
COc1ccc(S(=O)(=O)N(CC(C)C)CC(O)C(Cc2ccc(CN(C)C3CCCCC3c3sc4c(c3C(=O)O)CC(C)(C)CC4)cc2)NC(=O)OC2COC3(C)OCCC23)cc1 (stereo not drawn) [Compound I-345] | 1.82
COc1ccc(S(=O)(=O)N(CC(C)C)CC(O)C(Cc2ccc(NCc3ccccc3NC(=O)Nc3sc4c(c3C(=O)O)CC(C)(C)CC4)cc2)NC(=O)OC2COC3(C)OCCC23)cc1 (stereo not drawn) [Compound I-779] | 2.74
COc1ccc(S(=O)(=O)N(CC(C)C)C[C@@H](O)[C@H](Cc2ccc(OCc3sc4ccccc4c3C(=O)O)cc2)NC(=O)O[C@H]2CO[C@@]3(C)OCC[C@@H]23)cc1 [Compound I-5] | 1.15
COc1ccc(S(=O)(=O)N(CC(C)C)CC(O)C(Cc2ccc(OCc3ccccc3-c3sc4c(c3C(=O)O)C3CC(C4)C3(C)C)cc2)NC(=O)OC2COC3OCCC23)cc1 (stereo not drawn) [Compound I-829] | 1.2
COc1ccc(S(=O)(=O)N(CC(C)C)CC(O)C(Cc2ccc(N(C)Cc3cc(C#N)ccc3-c3sc4c(c3C(=O)O)CC(C)(C)CC4)cc2)NC(=O)OC2COC3(C)OCCC23)cc1 (stereo not drawn) [Compound I-452] | 2.6
COc1ccc(S(=O)(=O)N(CC(C)C)CC(O)C(Cc2ccc(NCc3cnn4ccc(C(=O)O)nc34)cc2)NC(=O)OC2COC3(C)OCCC23)cc1 (stereo not drawn) [Compound I-320] | 1.95
